Three molecules from US10206388B2, “Formulation component” (SYNGENTA LIMITED, priority 2011, dated 2019) can be followed below.

Common to all, as to format: in vivo
One series deals with Tetranychus urticae. The series can be described thus: Two spotted spider mite mortality on French bean, abamectin with aromatic ester adjuvants. The note with it: for % mortality of Tetranychus urticae: adjuvant 0.1% v/v where present, French bean, 10 days, larva and adults averaged. As to the method: The efficacy of the benzoic acid esters Finsolv® SB (isostearyl benzoate) and Finsolv® TN (C12-C15 alkyl benzoate) and the aromatic ester ethoxylate Dermol®25-3B (C12-C15 alkyl ethoxy (3) benzoate) as adjuvants in compositions containing abamectin was tested and compared to the efficacy of abamectin compositions which lack this type of adjuvant. The adjuvants were present at 0.1% v/v in the abamectin compositions. The surfactants polyoxyethylene sorbitan monooleate and an ethoxylated castor oil were also present in all the abamectin compositions tested.
Two week old French bean (Phaseolus vulgaris) plants were infested with a mixed population of two spotted spider mite Tetranychus urticae. One day after infestation the plants were treated with the test compositions, with a track sprayer from the top with a rate of 200 liters per hectare. Plants were incubated in the greenhouse for 10 days and the evaluation was done on mortality against Larva and Adults, just on the lower side (untreated) of the leaves. Each experiment was replicated twice and the results were averaged. The mortality against Larva and Adults was then averaged.

Series [1] deals with four weed species (ABUTH, CHEAL, DIGSA, SETVI). Briefly: Glasshouse weed test, nicosulfuron with adjuvants, mean across species. The note with it: mean over two rates. How it is done:
(§1) The aromatic ester Finsolv® TN (C12-C15 alkyl benzoate) was tested in a glasshouse against four weed species using the herbicide nicosulfuron. An agrochemical composition was prepared containing 0.2% v/v of the adjuvant in a track sprayer, and was applied at a volume of 200 liters per hectare. Nicosulfuron was applied at either 30 or 60 grams of pesticide per hectare on each of the weed species. The weed species and their growth stage at spraying were Abutilon theophrasti (ABUTH; growth stage 13), Chenopodium album (CHEAL; growth stage 14), Digitaria sanguinalis (DIGSA; growth stage 13), and Setaria viridis (SETVI; growth stage 13).
(§2) Each spray test replicated three times. The efficacy of the herbicide was assessed visually and expressed as a percentage of the leaf area killed. Samples were assessed at time periods of 7, 14 and 20 days following application. The results shown in Table 6 below are mean averages over the two rates of nicosulfuron, three replicates and the three assessment timings, and are compared to the efficacy of nicosulfuron in the absence of an adjuvant, and nicosulfuron in the presence of the commercially available tank-mix adjuvant, Atplus411F®.
(§3) A second experiment was conducted to assess the efficacy of Finsolv® TN as an adjuvant in compositions of nicosulfuron. This was carried out as outlined above, with the following change: samples were assessed at 14 and 20 days post application.
(§4) The results shown in Table 7 below are mean averages over the two rates of nicosulfuron, three replicates and the two assessment timings, and are compared to the efficacy of nicosulfuron in the absence of an adjuvant, and nicosulfuron in the presence of the commercially available tank-mix adjuvant, Atplus411F®.
(§5) The aromatic esters Benzoate 1 (see Example 9), Benzoflex 354 (2,2,4-trimethyl-1,3-pentanediol dibenzoate) and Finsolv® SB (stearyl benzoate) were tested in a glasshouse against four weed species using the herbicide nicosulfuron. Nicosulfuron was applied at either 30 or 60 grams of pesticide per hectare on each of the weed species. The weed species and their growth stage at spraying were Abutilon theophrasti (ABUTH; growth stage 13), Chenopodium album (CHEAL; growth stage 14), Digitaria sanguinalis (DIGSA; growth stage 13), and Setaria viridis (SETVI; growth stage 13).
(§6) Each spray test replicated three times. The efficacy of the herbicide was assessed visually and expressed as a percentage of the leaf area killed. Samples were assessed at time periods of 14 and 20 days following application. The results shown in Table 14 below are mean averages over the two rates of nicosulfuron, three replicates and the two assessment timings, and are compared to the efficacy of nicosulfuron in the absence of an adjuvant, and nicosulfuron in the presence of the commercially available tank-mix adjuvant, Atplus411F®.
An agrochemical composition was prepared containing 0.2% v/v of the adjuvant in a track sprayer and was applied at a volume of 200 liters per hectare. The adjuvant oils were emulsified using a small amount of the surfactant Pluronic® PE 10500, which was present in the composition at a concentration of 0.02% v/v. Nicosulfuron was applied at either 30 or 60 grams of pesticide per hectare on each of the weed species. The weed species and their growth stage at spraying were Abutilon theophrasti (ABUTH; growth stage 13), Chenopodium album (CHEAL; growth stage 14-15), Digitaria sanguinalis (DIGSA; growth stage 14), and Setaria viridis (SETVI; growth stage 13-14).
Each spray test replicated three times. The efficacy of the herbicide was assessed visually and expressed as a percentage of the leaf area killed. Samples were assessed at time periods of 14 and 21 days following application. […]

Another series deals with Setaria viridis (SETVI). The series can be described thus: Glasshouse weed test, nicosulfuron with adjuvants. The conditions noted are these: mean over two rates. How it is done:
as §1, §2, §3, §4, §5, §6

The test system of series [2] is Chenopodium album (CHEAL). The series can be described thus: Glasshouse weed test, nicosulfuron with adjuvants. The conditions noted are these: mean over two rates. As to the method:
as §1, §2, §3, §4, §5, §6

The test system of series [3] is Abutilon theophrasti (ABUTH). The series can be described thus: Glasshouse weed test, nicosulfuron with adjuvants. The conditions noted are these: mean over two rates. How it is done:
as §1, §2, §3, §4, §5, §6

For series [4], the system named is Digitaria sanguinalis (DIGSA). Briefly: Glasshouse weed test, nicosulfuron with adjuvants. The conditions noted are these: mean over two rates. As to the method: as §1, §2, §3, §4, §5, §6
Where [5] appears, read: Table 6, Example 5: nicosulfuron 30 or 60 g/ha, adjuvant 0.2% v/v, three replicates, 7, 14 and 20 days.
The mark [6] stands for this setting: Table 7, Example 5 second experiment: nicosulfuron 30 or 60 g/ha, adjuvant 0.2% v/v, three replicates, 14 and 20 days.
[7] abbreviates: Table 14, Example 10: nicosulfuron 30 or 60 g/ha, three replicates, 14 and 20 days.

Turning to `CC(C)CCCCCCCCCCCCCCCOC(=O)c1ccccc1` [Finsolv® SB, Isostearyl benzoate], the “Mortality of Tetranychus urticae” value with Tetranychus urticae (aromatic ester composition 0.1% v/v without abamectin present) is “no mortality”.

Turning to `COc1cc(OC)nc(NC(=O)NS(=O)(=O)c2ncccc2C(=O)N(C)C)n1` [Nicosulfuron, nicosulfuron], the “Mean percentage kill, Mean across species” value in series [1] (setting [5]) is reported as 20.1 B %; in series [1] (setting [6]) it was 29.1 B %; in series [1] (setting [7]) it was 59.6 B %; in series [1] (Table 19, Example 15: nicosulfuron 30 or 60 g/ha, adjuvant 0.2% v/v emulsified with Pluronic PE 10500 0.02% v/v, three replicates, 14 and 21 days), 29.8B %; in series [1] (Table 23, Example 19: absence of an adjuvant, nicosulfuron 30 or 60 g/ha, three replicates, 14 and 21 days) it was 40.1%; in series [1] (Table 33, Example 33: nicosulfuron 30 or 60 g/ha, three replicates, 14 and 21 days), 40.1B %. Also, the “Mean percentage kill SETVI” value in the series on Setaria viridis (SETVI) (setting [5]) amounted to 33.3 C %; in the series with Setaria viridis (SETVI) (setting [6]), 61.3 C %; in the series with Setaria viridis (SETVI) (setting [7]) it was 81.0 B %. Further, the “Mean percentage kill CHEAL” value worked out at 26.7 B % in series [2] (setting [5]), 25.8 B % in series [2] (setting [6]) and 44.6 B % in series [2] (setting [7]). The “Mean percentage kill ABUTH” value in series [3] (setting [5]) is listed as 19.4 B %; in series [3] (setting [6]), 29.2 B %; in series [3] (setting [7]) it was 56.7 C %. Also, the results for the “Mean percentage kill DIGSA” value in series [4] (setting [5]), in series [4] (setting [6]) and in series [4] (setting [7]) were 1.1 B %, 0.0 B % and 56.3 B %, respectively.

In the case of abamectin, the “% mortality of Tetranychus urticae” value with Tetranychus urticae (abamectin 0.2 ppm) came out at 0%; in the series with Tetranychus urticae (abamectin 0.4 ppm) it was 0%; in the series with Tetranychus urticae (abamectin 0.8 ppm), 27%; in the series on Tetranychus urticae (abamectin 1.5 ppm) it was 70%; with Tetranychus urticae (abamectin 3 ppm, lower untreated leaf side), 95%.
